# Source: patent US10925865B2, “Charged ion channel blockers and methods for use” (Nocion Therapeutics, Inc., priority 2019, dated 2021)
# What was measured:
# NaV1.7 [1] = biological target: T1, NaV1.7 (Homo sapiens, UniProt Q15858); assay: Nav1.7 whole cell patch clamp, external block (extracellular application); assay type: cell-based; settings: test concentration 30 μM, compound in external solution for 5 minutes, 5 Hz stimulation
# T1 construct: expressed in transfected cells; host or cells: Tetracycline-inducible cell line kept under hygromycin and blasticidin selection
# Procedure: (§1) The compounds were synthesized according to the described method and tested for the ability to inhibit voltage-gated sodium channels.
# (§2) NaV1.7 was expressed upon induction with tetracycline. Cells were cultured in DMEM containing 10% dialyzed Fetal Bovine Serum (VWR, Radnor, Pa.), 1% Glutamax (VWR, Radnor, Pa.), 1% Penicillin-Streptomycin (VWR, Radnor, Pa.), 100 mg/L Hygromycin (Thermo Fisher Scientific, Waltham, Mass. and 5 mg/L Blasticidin (Alfa Aesar, Haverhill, Mass.). Cells were grown and maintained at 37° C. in a humidified environment containing 10% CO2 in air. Cells were detached from the culture flask for passage and harvested using 0.05% Trypsin-EDTA (Thermo Fisher Scientific, Waltham, Mass.). To induce NaV1.7, cells were induced with tetracycline ([…], IBI Scientific, Peosta, Iowa) the day before recording and plated onto 24-well plates. Cells were washed with DPBS (VWR, Radnor, Pa.), trypsinized and then triturated five times in 10 mL of growth media to break apart cell aggregates. For one 24-well plate, 2 mL of cell suspension was mixed with 23 mL of fresh growth media and […] tetracycline added. 1 ml of mixed media with cells was then added to each well of a 24-well plate, with a 12 mm coverslip already placed in the bottom of the well. Cells were then incubated in 37° C. and 10% CO2 overnight.
# (§3) The intracellular solution contained the following (in mM) CsCl 135, NaCl 10, EGTA 10, HEPES 10, MgCl2 2, adjusted to pH 7.2 with CsOH. The external solution was a normal Ringer solution containing (in mM) NaCl 155, HEPES 10, glucose 10, KCl 3.5, CaCl2 1.5, MgCl2 1 adjusted to pH 7.4 with NaOH. CsCl is from Alfa Aesar, Haverhill, Mass. All other chemicals are from Sigma-Aldrich, St. Louis, Mo. In order to test the degree of internal block by test compounds the compounds were dissolved in internal solution at the indicated test concentration. […] In order to test the degree of external block by test compounds the compounds were dissolved in external solution at the indicated test concentration.
# (§4) 18-24 hours after cells were induced with tetracycline, coverslips were placed into a chamber filled with Normal Ringer solution at room temperature and the chamber placed on a microscope. Pipettes were pulled from borosilicate glass on a P97 puller (Sutter Instrument, Novato, Calif.) and polished with a MF-830 Microforge (Narishige International USA, Inc., Amityville, N.Y.) to have a resistance of 1.5-2.5 MQ when filled with CsCl internal solution at room temperature. Healthy cells (those that are round and translucent with no visible blemishes) were chosen for seal formation. A seal was formed between the pipette and the cell, and a brief pulse of suction was used to “break in” and establish the whole-cell configuration. The membrane potential was held at −100 mV before the voltage protocol began. Only cells with series resistance between 1.5-5 MQ were retained for analysis. The voltage protocol was as follows: Cells were held at −100 mV for 12 ms followed by a hyperpolarizing step to −105 mV for 12 ms to monitor the leak. Cells were then stepped back to −100 mV for 40 ms. Cells were then depolarized to −20 mV for 10 ms and then returned to −100 mV for 26 ms (The FIGURE).
# (§5) Once the recording was started, the voltage protocol was run at 30 second intervals for 5 minutes to get a stable baseline. […] Currents were recorded using PatchMaster software with Heka EPC10 (HEKA Electronics, Lambrecht, Germany). […]
# NaV1.7 [2] = biological target: T1, NaV1.7; assay: Nav1.7 whole cell patch clamp, internal block (intracellular inhibition); assay type: cell-based; settings: test concentration 10 μM, compound in internal solution, 5 Hz stimulation
# Procedure: as §1, §2, §3, §4, §5
# [3] = test system: artificial lipid membrane; assay: PAMPA membrane permeability assay; assay type: in vitro ADME; settings: pH 7.4 buffer, GIT lipid, 4 hours incubation
# Procedure: The PAMPA assay (pION, Inc., Woburn Mass.) was used to determine the ability of compounds of the invention to cross an artificial lipid membrane by passive diffusion. Test compounds were dissolved in DMSO (10 mM) and diluted 200-fold in buffer (pION Inc., pH 7.4) to provide 50 uM stock solutions. Buffer (150 μL) was added to a UV blank plate and stock solutions (150 μL) were transferred to a UV reference plate. The blank and reference spectrum were read using a spectrophotometer. Stock solutions (200 μL) were added to the donor plate of the PAMPA sandwich plate and an accept plate painted with GIT lipid (pION Inc., 5 μL) was placed on top. Buffer (200 μL) was added to the acceptor plate and the PAMPA sandwich plate was incubated for 4 hours. Aliquots (150 μL) from the acceptor plate were added to a UV plate and read as acceptor spectrum. Aliquots (150 μL) of the donor solutions were added to a UV analysis plate and read as donor spectrum. The permeability coefficient of test compounds was calculated using PAMPA Explorer™ software (version 3.5.0.4) based on the AUC of the reference plate, the donor plate, and the acceptor plate.
# T1 sequence (Q15858 whole entry): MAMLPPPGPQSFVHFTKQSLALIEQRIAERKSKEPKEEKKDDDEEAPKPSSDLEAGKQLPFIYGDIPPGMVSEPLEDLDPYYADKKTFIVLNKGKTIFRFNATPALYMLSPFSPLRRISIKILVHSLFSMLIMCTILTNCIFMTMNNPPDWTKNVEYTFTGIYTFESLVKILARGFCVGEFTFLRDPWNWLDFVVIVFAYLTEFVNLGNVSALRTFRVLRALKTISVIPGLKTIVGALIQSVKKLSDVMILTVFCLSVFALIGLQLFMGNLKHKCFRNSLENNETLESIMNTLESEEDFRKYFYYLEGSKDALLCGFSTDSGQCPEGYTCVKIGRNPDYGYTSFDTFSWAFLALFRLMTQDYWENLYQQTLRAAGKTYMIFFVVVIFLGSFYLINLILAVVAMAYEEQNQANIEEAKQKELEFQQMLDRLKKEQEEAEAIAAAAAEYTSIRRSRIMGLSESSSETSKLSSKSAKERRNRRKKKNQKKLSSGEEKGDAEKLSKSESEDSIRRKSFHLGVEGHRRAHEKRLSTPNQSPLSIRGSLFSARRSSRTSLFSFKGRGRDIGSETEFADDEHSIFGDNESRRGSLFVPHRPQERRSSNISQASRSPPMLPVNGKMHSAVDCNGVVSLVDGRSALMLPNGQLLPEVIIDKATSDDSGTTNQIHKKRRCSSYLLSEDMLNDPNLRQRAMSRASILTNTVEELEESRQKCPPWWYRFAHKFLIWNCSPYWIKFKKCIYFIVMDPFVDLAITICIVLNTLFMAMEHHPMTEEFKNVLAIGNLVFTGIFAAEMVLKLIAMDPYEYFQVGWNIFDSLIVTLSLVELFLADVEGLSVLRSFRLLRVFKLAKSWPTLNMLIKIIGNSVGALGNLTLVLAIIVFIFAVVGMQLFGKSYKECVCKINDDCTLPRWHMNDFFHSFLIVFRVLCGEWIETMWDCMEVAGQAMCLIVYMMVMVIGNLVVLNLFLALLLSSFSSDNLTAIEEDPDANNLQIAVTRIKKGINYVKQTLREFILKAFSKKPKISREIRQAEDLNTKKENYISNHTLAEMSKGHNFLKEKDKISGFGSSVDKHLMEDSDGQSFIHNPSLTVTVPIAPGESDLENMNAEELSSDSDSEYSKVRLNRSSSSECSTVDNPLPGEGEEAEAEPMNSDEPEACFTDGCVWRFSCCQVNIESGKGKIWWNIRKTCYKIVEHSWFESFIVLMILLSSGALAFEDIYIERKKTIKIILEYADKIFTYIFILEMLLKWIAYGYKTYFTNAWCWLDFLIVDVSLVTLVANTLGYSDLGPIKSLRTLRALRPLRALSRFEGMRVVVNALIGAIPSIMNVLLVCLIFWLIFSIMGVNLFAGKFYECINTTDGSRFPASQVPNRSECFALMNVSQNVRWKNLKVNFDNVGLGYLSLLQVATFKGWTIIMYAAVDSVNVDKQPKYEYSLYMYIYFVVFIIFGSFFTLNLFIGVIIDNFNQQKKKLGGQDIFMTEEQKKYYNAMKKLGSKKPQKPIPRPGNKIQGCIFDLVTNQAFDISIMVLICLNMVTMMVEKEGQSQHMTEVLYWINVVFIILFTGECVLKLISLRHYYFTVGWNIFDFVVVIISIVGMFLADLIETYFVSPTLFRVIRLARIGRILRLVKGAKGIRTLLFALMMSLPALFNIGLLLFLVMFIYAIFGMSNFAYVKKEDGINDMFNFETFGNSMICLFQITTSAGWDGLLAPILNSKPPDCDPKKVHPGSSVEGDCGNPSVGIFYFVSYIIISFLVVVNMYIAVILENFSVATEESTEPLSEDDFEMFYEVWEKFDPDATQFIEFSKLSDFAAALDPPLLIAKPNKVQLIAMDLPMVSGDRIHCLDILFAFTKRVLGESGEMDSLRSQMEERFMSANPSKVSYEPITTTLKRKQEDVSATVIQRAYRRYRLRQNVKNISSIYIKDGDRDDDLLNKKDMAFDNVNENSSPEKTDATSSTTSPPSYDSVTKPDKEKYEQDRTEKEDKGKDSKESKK
SMILES,inhibition at 30 µM (NaV1.7 [1]),inhibition at 10 µM (NaV1.7 [2]),"Papp at 4 h, 50 uM [3]"
"Cc1cccc(C)c1NC(=O)C[n+]1cccc(-c2ccccc2)c1.[Br-] [1′A, 1-(2-((2,6-dimethylphenyl)amino)-2-oxoethyl)-3-phenylpyridin-1-ium bromide]",< 45%,> 75%,< 1 ×10⁻⁶ cm/s
"CCc1cccc[n+]1CC(=O)Nc1c(C)cccc1C.[Br-] [4′A, 1-(2-((2,6-dimethylphenyl)amino)-2-oxoethyl)-2-ethylpyridin-1-ium bromide]",< 45%,> 75%,< 1 ×10⁻⁶ cm/s
"Cc1cccc(C)c1NC(=O)C[n+]1ccccc1-c1ccccc1.[Br-] [2′A, 1-(2-((2,6-dimethylphenyl)amino)-2-oxoethyl)-2-phenylpyridin-1-ium bromide]",< 45%,> 75%,< 1 ×10⁻⁶ cm/s

# Next, values leading:
inhibition at 30 µM (NaV1.7 [1]),inhibition at 10 µM (NaV1.7 [2]),"Papp at 4 h, 50 uM [3]",SMILES
< 45%,> 75%,,"CCOC(=O)c1ccc[n+](CC(=O)Nc2c(C)cccc2C)c1 [5′A, 1-(2-((2,6-dimethylphenyl)amino)-2-oxoethyl)-3-(ethoxycarbonyl)pyridin-1-ium bromide]"
< 45%,> 75%,< 1 ×10⁻⁶ cm/s,"CCc1ccc[n+](CC(=O)Nc2c(C)cccc2C)c1.[Br-] [3′A, 1-(2-((2,6-dimethylphenyl)amino)-2-oxoethyl)-3-ethylpyridin-1-ium bromide]"
